Molecular target: T1, WIZ protein (HiBit-WIZ fusion protein) (Homo sapiens, UniProt O95785+Q96SW2)
T1 construct: expressed in transfected cells
Assay: Quantification of WIZ protein levels in HiBit tag fusion protein assay (WIZ HiBit assay in 293T cells)
Type: cell-based
Settings: for Dmax at 25 µM / remaining activity at 25 µM: HEK-293T, 293T cells; for Dmax at 25 µM: 100 − Amax, read-out: % degradation of WIZ (100 − Amax); for remaining activity at 25 µM: DMSO-normalized, curve-fitted percentage of WIZ-HiBit remaining at 25 uM, read-out: WIZ Amax; for DC50: WIZ HiBit assay in 293T cells, 10-point, 5-fold dose response, highest concentration 25 μM, about 18 hours, read-out: WIZ AC50
Method in brief: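 HiBit-tagged WIZ (N-terminal tag, HSVTK promoter) stably expressed single-copy in 293T cells; 10-point 1:5 compound series, top 25 μM, ~18 h at 37 °C. Lytic HiBit/LgBit luminescence read; Amax = curve-fitted % WIZ-HiBit remaining at 25 μM, DMSO normalized to 100%.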

T1 sequence (O95785 whole entry, the tested form may be a part): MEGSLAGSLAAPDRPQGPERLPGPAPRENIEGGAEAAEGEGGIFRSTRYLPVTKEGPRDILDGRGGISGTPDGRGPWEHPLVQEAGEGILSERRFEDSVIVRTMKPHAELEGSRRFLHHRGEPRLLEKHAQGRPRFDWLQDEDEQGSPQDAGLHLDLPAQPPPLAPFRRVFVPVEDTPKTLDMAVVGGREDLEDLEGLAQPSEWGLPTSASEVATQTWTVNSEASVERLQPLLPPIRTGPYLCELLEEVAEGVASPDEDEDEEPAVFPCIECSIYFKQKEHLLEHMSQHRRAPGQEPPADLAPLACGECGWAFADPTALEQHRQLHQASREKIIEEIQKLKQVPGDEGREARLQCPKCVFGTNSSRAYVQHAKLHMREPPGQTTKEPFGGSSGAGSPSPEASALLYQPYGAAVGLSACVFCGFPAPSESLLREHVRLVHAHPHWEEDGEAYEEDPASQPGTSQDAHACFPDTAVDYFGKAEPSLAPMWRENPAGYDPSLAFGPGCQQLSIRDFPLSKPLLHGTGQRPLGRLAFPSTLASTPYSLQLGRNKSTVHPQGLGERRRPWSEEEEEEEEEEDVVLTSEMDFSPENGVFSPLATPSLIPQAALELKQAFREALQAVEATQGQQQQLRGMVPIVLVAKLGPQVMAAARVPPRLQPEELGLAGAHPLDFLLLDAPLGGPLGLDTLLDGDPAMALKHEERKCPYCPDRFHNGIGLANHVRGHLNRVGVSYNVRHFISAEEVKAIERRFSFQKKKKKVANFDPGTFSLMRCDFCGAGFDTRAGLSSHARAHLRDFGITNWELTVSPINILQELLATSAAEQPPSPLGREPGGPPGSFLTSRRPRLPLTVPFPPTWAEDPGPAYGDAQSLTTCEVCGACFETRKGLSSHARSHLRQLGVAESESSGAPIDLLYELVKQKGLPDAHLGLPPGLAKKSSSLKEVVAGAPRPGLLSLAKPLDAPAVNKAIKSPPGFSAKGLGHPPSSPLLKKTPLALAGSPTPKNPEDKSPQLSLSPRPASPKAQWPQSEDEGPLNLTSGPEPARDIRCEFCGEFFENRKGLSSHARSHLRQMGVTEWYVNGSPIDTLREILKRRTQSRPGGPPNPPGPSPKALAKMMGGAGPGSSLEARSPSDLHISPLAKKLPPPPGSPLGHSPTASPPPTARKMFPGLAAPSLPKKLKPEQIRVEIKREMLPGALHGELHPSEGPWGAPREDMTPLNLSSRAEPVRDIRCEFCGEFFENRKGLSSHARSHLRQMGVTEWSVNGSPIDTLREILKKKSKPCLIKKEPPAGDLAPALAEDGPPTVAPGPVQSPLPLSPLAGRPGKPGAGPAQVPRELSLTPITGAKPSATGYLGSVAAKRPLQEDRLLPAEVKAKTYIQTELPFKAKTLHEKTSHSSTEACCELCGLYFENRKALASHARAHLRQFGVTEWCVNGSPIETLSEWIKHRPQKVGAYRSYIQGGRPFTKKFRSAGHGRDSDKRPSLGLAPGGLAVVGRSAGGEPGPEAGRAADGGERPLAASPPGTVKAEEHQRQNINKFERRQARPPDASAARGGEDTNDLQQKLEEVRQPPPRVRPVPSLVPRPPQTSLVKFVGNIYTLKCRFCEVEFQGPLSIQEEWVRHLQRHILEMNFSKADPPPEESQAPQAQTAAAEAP
T1 sequence (Q96SW2 whole entry, the tested form may be a part): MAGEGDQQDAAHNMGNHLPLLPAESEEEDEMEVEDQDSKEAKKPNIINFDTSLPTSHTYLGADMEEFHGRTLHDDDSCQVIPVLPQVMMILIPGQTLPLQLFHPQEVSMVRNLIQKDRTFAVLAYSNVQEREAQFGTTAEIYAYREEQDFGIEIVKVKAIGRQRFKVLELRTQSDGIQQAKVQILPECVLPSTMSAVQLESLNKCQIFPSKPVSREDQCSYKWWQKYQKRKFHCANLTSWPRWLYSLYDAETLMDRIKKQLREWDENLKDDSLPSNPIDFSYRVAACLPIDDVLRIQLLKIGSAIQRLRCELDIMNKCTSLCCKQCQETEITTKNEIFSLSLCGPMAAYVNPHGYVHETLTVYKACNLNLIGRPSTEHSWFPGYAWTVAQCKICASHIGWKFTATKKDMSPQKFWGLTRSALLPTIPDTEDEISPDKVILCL
T1 sequence (Q16531 whole entry partner, the tested form may be a part): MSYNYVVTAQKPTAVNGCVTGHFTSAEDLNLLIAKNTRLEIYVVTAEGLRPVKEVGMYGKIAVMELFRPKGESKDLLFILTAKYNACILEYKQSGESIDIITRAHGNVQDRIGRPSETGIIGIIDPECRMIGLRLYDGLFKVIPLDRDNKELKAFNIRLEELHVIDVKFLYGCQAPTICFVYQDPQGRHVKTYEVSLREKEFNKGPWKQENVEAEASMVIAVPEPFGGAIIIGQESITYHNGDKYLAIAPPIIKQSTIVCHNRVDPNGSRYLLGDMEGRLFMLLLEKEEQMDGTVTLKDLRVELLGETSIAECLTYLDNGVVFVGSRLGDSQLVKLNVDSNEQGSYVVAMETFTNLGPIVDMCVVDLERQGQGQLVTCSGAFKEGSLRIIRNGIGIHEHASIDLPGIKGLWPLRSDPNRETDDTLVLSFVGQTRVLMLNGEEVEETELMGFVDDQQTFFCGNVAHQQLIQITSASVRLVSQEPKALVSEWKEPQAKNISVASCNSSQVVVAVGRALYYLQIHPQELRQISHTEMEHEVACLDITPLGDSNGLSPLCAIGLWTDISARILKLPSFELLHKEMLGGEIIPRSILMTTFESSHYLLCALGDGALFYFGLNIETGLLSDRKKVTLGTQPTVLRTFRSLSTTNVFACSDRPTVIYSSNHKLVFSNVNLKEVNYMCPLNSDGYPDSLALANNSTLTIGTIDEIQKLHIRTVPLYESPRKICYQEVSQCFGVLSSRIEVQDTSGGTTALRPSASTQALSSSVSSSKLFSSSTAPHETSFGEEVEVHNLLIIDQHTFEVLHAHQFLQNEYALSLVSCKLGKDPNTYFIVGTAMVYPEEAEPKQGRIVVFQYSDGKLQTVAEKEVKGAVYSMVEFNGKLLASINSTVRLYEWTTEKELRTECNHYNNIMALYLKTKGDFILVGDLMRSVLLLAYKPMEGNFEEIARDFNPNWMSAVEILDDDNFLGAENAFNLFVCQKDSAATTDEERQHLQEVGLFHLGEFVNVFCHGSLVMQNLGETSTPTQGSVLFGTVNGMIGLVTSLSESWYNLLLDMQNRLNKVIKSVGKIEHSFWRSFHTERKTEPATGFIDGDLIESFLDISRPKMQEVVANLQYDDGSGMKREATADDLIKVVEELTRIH

| SMILES | Dmax at 25 µM | remaining activity at 25 µM | DC50 |
| --- | --- | --- | --- |
| O=C1CCN(c2cnn3ccc(CC4CCN(CC5CCCCC5)CC4)cc23)C(=O)N1 [Example 1, 1-(5-((1-(cyclohexylmethyl)piperidin-4-yl)methyl)pyrazolo[1,5-a]pyridin-3-yl)dihydropyrimidine-2,4(1H,3H)-dione] | 91% | 9% | 20 nM |
| COc1ccc(CN2CCC(Cc3ccn4ncc(N5CCC(=O)NC5=O)c4c3)CC2)cc1 [Example 61, 1-(5-((1-(4-methoxybenzyl)piperidin-4-yl)methyl)pyrazolo[1,5-a]pyridin-3-yl)dihydropyrimidine-2,4(1H,3H)-dione] | 62% | 38% | 1740 nM |
| O=C1CCN(c2cnn3ccc(CC4CCN(Cc5ccc(F)c(F)c5)CC4)cc23)C(=O)N1 [Example 45, 1-(5-((1-(3,4-difluorobenzyl)piperidin-4-yl)methyl)pyrazolo[1,5-a]pyridin-3-yl)dihydropyrimidine-2,4(1H,3H)-dione] | 70% | 30% | 23 nM |
| O=C1CCN(c2cnn3ccc(CC4(F)CCN(CC5CCC5)CC4)cc23)C(=O)N1 [Example 125, 1-(5-((1-(cyclobutylmethyl)-4-fluoropiperidin-4-yl)methyl)pyrazolo[1,5-a]pyridin-3-yl)dihydropyrimidine-2,4(1H,3H)-dione] | 55% | 45% | 596 nM |
| O=C1CCN(c2cnn3ccc(CC4CCN(C(=O)C5CCCCC5)CC4)cc23)C(=O)N1 [Example 99] | 52% | 48% | 1830 nM |
| C[C@@H]1C[C@@H](Cc2ccn3ncc(N4CCC(=O)NC4=O)c3c2)CCN1CC1CCC(F)(F)CC1 [Example 155] | 85% | 15% | 9 nM |
| Cn1cnc(CN2CCC(Cc3ccn4ncc(N5CCC(=O)NC5=O)c4c3)CC2)c1 [Example 116] | 39% | 61% | 1700 nM |
| O=C1CCN(c2cnn3ccc(CN4CCN(CC5CCCCCC5)CC4)cc23)C(=O)N1 [Example 158] | 82% | 18% | 25 nM |
| CC(C)(F)CN1CCN(Cc2ccn3ncc(N4CCC(=O)NC4=O)c3c2)CC1 [Example 169] | 55% | 45% | 326 nM |
| O=C1CCN(c2cnn3ccc(CC4CCN(S(=O)(=O)C5CCOCC5)CC4)cc23)C(=O)N1 [Example 83] | 89% | 11% | 76 nM |
| COc1cccc(CN2CCC(Cc3ccn4ncc(N5CCC(=O)NC5=O)c4c3)CC2)c1 [Example 40, 1-(5-((1-(3-methoxybenzyl)piperidin-4-yl)methyl)pyrazolo[1,5-a]pyridin-3-yl)dihydropyrimidine-2,4(1H,3H)-dione] | 70% | 30% | 52 nM |
| O=C1CCN(c2cnn3ccc(CC4CCN(CC5CC5)CC4)cc23)C(=O)N1 [Example 5, 1-(5-((1-(cyclopropylmethyl)piperidin-4-yl)methyl)pyrazolo[1,5-a]pyridin-3-yl)dihydropyrimidine-2,4(1H,3H)-dione] | 89% | 11% | 204 nM |

Next, values leading:

| Dmax at 25 µM | remaining activity at 25 µM | DC50 | SMILES |
| --- | --- | --- | --- |
| 64% | 36% | 260 nM | O=C1CCN(c2cnn3ccc(CN4CCN5CCOC[C@@H]5C4)cc23)C(=O)N1 [Example 264, (S)-1-(5-((hexahydropyrazino[2,1-c][1,4]oxazin-8(1H)-yl)methyl)pyrazolo[1,5-a]pyridin-3-yl)dihydropyrimidine-2,4(1H,3H)-dione] |
| 0% | 100% | > 25000 nM | CC(C)CN1CCN(Cc2ccn3ncc(-n4cc(C5CC5)c(=O)[nH]c4=O)c3c2)C[C@@H]1C [Example 361, (S)-5-cyclopropyl-1-(5-((4-isobutyl-3-methylpiperazin-1-yl)methyl)pyrazolo[1,5-a]pyridin-3-yl)pyrimidine-2,4(1H,3H)-dione] |
| 74% | 26% | 380 nM | C[C@H]1CN(Cc2ccn3ncc(N4CCC(=O)NC4=O)c3c2)CCN1CC1CCCO1 (stereo partly drawn) [Example 209] |
| 42% | 58% | 527 nM | O=C1CCN(c2cnn3ccc(CN4CCN(CC5(C(F)(F)F)CC5)CC4)cc23)C(=O)N1 [Example 172] |
| 35% | 65% | 3280 nM | O=C1CCN(c2cnn3ccc(CN4C[C@H]5C[C@@H]4CN5Cc4cccnc4)cc23)C(=O)N1 [Example 235, 1-(5-(((1R,4R)-5-(pyridin-3-ylmethyl)-2,5-diazabicyclo[2.2.1]heptan-2-yl)methyl)pyrazolo[1,5-a]pyridin-3-yl)dihydropyrimidine-2,4(1H,3H)-dione] |
| 66% | 34% | 133 nM | CC(C)CN1CCN(Cc2ccn3ncc(N4CCC(=O)NC4=O)c3c2)[C@H](C)C1 [Example 220] |
| 85% | 15% | 124 nM | CC(C)CN1CCN(Cc2ccn3ncc(-n4ccc(=O)[nH]c4=O)c3c2)C[C@@H]1C [Example 357, (S)-1-(5-((4-isobutyl-3-methylpiperazin-1-yl)methyl)pyrazolo[1,5-a]pyridin-3-yl)pyrimidine-2,4(1H,3H)-dione] |
| 53% | 47% | 150 nM | CC1(C)CN(Cc2ccn3ncc(N4CCC(=O)NC4=O)c3c2)CCN1CC1CCCCC1 [Example 231, 1-(5-((4-(cyclohexylmethyl)-3,3-dimethylpiperazin-1-yl)methyl)pyrazolo[1,5-a]pyridin-3-yl)dihydropyrimidine-2,4(1H,3H)-dione] |
| 68% | 32% | 583 nM | O=C1CCN(c2cnn3ccc(CN4CCN5CCCC[C@H]5C4)cc23)C(=O)N1 [Example 262, (S)-1-(5-((octahydro-2H-pyrido[1,2-a]pyrazin-2-yl)methyl)pyrazolo[1,5-a]pyridin-3-yl)dihydropyrimidine-2,4(1H,3H)-dione] |
| 86% | 14% | 9 nM | C[C@@H]1CC(CN2CCN(Cc3ccn4ncc(N5CCC(=O)NC5=O)c4c3)C[C@@H]2C)C[C@H](C)O1 (stereo partly drawn) [Example 199, 1-(5-(((3S)-4-(((2R,6S)-2,6-dimethyltetrahydro-2H-pyran-4-yl)methyl)-3-methylpiperazin-1-yl)methyl)pyrazolo[1,5-a]pyridin-3-yl)dihydropyrimidine-2,4(1H,3H)-dione] |
| 78% | 21% | 4 nM | C[C@H]1CN(Cc2ccn3ncc(N4CCC(=O)NC4=O)c3c2)CCN1C[C@@H]1CCC(F)(F)C1 [Example 319, 1-(5-(((S)-4-(((R)-3,3-difluorocyclopentyl)methyl)-3-methylpiperazin-1-yl)methyl)pyrazolo[1,5-a]pyridin-3-yl)dihydropyrimidine-2,4(1H,3H)-dione] |
| 84% | 16% | 6 nM | C[C@H]1C[C@H](Cc2ccn3ncc(N4CCC(=O)NC4=O)c3c2)CCN1C[C@H]1CCC(F)(F)C1 [Example 307, 1-(5-(((2S,4R)-1-(((S)-3,3-difluorocyclopentyl)methyl)-2-methylpiperidin-4-yl)methyl)pyrazolo[1,5-a]pyridin-3-yl)dihydropyrimidine-2,4(1H,3H)-dione] |
| 54% | 46% | 318 nM | C[C@H]1CN(CC2CCCCC2)CCN1Cc1ccn2ncc(N3CCC(=O)NC3=O)c2c1 [Example 221] |
| 34% | 66% | 2560 nM | O=C1CCN(c2cnn3ccc(CN4CCN5C(=O)COC[C@H]5C4)cc23)C(=O)N1 [Example 314, (R)-1-(5-((4-oxohexahydropyrazino[2,1-c][1,4]oxazin-8(1H)-yl)methyl)pyrazolo[1,5-a]pyridin-3-yl)dihydropyrimidine-2,4(1H,3H)-dione] |
| 80% | 20% | 18 nM | C[C@H]1C[C@H](Cc2ccn3ncc(N4CCC(=O)NC4=O)c3c2)CCN1S(C)(=O)=O [Example 284] |
| 41% | 59% | 300 nM | O=C1CCN(c2cnn3ccc(CN4CCCN(CC5CCCCC5)CC4)cc23)C(=O)N1 [Example 249, 1-(5-((4-(cyclohexylmethyl)-1,4-diazepan-1-yl)methyl)pyrazolo[1,5-a]pyridin-3-yl)dihydropyrimidine-2,4(1H,3H)-dione] |
| 80% | 20% | 31 nM | CO[C@H]1C[C@@H](CN2CCN(Cc3ccn4ncc(N5CCC(=O)NC5=O)c4c3)C[C@@H]2C)C1 [Example 317, 1-(5-(((S)-4-(((1s,3R)-3-methoxycyclobutyl)methyl)-3-methylpiperazin-1-yl)methyl)pyrazolo[1,5-a]pyridin-3-yl)dihydropyrimidine-2,4(1H,3H)-dione] |
| 83% | 17% | 162 nM | CCS(=O)(=O)N1CC[C@@H](Cc2ccn3ncc(-n4ccc(=O)[nH]c4=O)c3c2)C[C@@H]1C [Example 356, 1-(5-(((2S,4R)-1-(ethylsulfonyl)-2-methylpiperidin-4-yl)methyl)pyrazolo[1,5-a]pyridin-3-yl)pyrimidine-2,4(1H,3H)-dione] |

Source: patent US11787785B2 (NOVARTIS AG, priority 2021, dated 2023)
